Results on 1 compound are retold here after patent publication US20080200439A1, “Methods and compositions for modulating BK channel activity and vasodilation” (University of Tennessee Research Foundation, priority 2006, published 2008).

This assay addresses T1, homomeric cbv1 (rslo1) channels (Rattus norvegicus, UniProt Q62976).
T1 construct: Full-length cDNA coding for cbv1-subunits was cloned from rat cerebral artery myocytes by PCR; expressed in transfected cells; host or cells: Xenopus laevis oocytes (cRNA injection)
As to the kind of experiment: Inside-out patch-clamp of homomeric cbv1 channels expressed in Xenopus oocytes. The settings on record: I/O patches, Ca2+i 10 μM, ±20 mV, read-out: Average NPo (% of control). It counts as cell-based. From the text:
cRNA Preparation and Injection into Xenopus Oocytes. Full-length cDNA coding for cbv1-subunits was cloned from rat cerebral artery myocytes by PCR and ligated to the PCR-XL-TOPO cloning vector (Invitrogen Corp., Carlsbad, Calif., United States of America) (Jaggar et al., 2005). cDNA coding for cbv1-subunits was cleaved from the cloning vector by BamHI (Invitrogen Corp., Carlsbad, Calif., United States of America) and XhoI (Promega, Madison, Wis., United States of America) and directly inserted into the pOX vector for expression in Xenopus oocytes. pOX-cbv1 was linearized with NotI (Promega, Madison, Wis., United States of America) and transcribed in vitro using T3 polymerase. […]
Electrophysiology. […] Single-channel and macroscopic currents were recorded from inside-out (I/O) or outside-out (O/O) patches. […] Nominal free Ca^2+ was calculated with MaxChelator Sliders (C. Patton, Stanford University, California, United States of America) and validated experimentally using Ca^2+-selective electrodes (Corning Incorporated Science Products Division, Corning, N.Y., United States of America). […]
Currents were recorded using an EPC8 amplifier (HEKA Electronics, Lambrecht/Pfalz, Germany) at 1 kHz using a low-pass, eight-pole Bessel filter 902LPF (Frequency Devices, Haverhill, Mass., United States of America). […]
In general terms: Patch clamp records ionic current or voltage across a cell membrane.

T1 sequence (Q62976 1-1148 isoform Q62976-2): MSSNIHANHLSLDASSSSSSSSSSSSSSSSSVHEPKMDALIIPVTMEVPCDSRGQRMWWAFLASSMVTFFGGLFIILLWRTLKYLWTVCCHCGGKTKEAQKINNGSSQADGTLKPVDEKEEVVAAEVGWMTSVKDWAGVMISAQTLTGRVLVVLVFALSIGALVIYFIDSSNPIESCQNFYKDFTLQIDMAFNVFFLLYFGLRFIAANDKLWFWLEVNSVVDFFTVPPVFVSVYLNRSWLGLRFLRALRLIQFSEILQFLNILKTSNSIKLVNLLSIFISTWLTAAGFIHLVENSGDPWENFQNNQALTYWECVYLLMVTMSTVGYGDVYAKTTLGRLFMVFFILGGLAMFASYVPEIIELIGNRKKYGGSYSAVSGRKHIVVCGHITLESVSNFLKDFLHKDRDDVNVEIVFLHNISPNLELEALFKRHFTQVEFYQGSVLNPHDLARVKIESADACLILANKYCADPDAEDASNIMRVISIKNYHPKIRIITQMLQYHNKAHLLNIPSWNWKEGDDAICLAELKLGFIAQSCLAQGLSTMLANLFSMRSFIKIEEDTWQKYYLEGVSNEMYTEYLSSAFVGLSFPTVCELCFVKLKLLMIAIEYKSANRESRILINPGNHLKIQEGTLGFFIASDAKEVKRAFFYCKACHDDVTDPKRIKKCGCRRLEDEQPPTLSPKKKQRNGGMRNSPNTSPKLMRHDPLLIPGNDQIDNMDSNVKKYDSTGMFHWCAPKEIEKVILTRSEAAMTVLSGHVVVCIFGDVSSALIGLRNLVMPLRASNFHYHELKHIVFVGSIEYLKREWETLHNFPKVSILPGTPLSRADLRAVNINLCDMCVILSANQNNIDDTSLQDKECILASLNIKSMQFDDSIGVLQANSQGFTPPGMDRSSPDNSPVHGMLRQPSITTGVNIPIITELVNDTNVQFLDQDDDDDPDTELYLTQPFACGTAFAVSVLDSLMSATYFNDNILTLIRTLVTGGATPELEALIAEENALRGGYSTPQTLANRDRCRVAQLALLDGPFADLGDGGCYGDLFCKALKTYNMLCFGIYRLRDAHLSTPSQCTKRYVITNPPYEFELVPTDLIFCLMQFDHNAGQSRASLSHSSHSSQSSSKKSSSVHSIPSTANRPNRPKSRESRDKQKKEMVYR

Regarding `C[C@H](CCC(=O)O)[C@H]1CC[C@H]2[C@@H]3CC[C@@H]4C[C@H](O)CC[C@]4(C)[C@H]3CC[C@]12C` [LC, 5β-cholanic acid 3α-ol], the remaining activity at 150 µM was found to be 112 ± 13%.
